Reference: the NIST ThermoML archive (doi:10.1016/j.fluid.2017.09.023)

Conditions: Crystal, Transpiration method

CC(=O)Nc1ccccc1 [N-phenylethanamide]
Conditions | vapor or sublimation pressure [kPa]
316.3 K | 9e-05
320.3 K | 0.00015
322.3 K | 0.00018
323.2 K | 0.00021
325.3 K | 0.00025
327 K | 0.0003
328.1 K | 0.00035
328.2 K | 0.00033
333.3 K | 0.0006
334.3 K | 0.00064
337.1 K | 0.00088
339.4 K | 0.00114
340.3 K | 0.00119
342.4 K | 0.00159
345.5 K | 0.00205
346.1 K | 0.00214
347.2 K | 0.0024
349.4 K | 0.00299
351.2 K | 0.00356
352.5 K | 0.00422
355.5 K | 0.00532
356.4 K | 0.00601
357.4 K | 0.00636
359.2 K | 0.00759
360.2 K | 0.00852
362.2 K | 0.01028
364.3 K | 0.01261
365.3 K | 0.01406
366.7 K | 0.01576
368.4 K | 0.01777
369.2 K | 0.01911
372.2 K | 0.02411
